Assay results taken from paper PMC8694143 (Microbiology Spectrum, 2021).
No end group written: not given here.

Experiments:
HeLa (ATCC CCL-2) cells = assay: HeLa cytotoxicity, alamarBlue; type: cell-based, human; details: monolayers, 3.13 to 200 μg/mL, 24 h, alamarBlue fluorescence; estimated
Experimental: Cytotoxicity was measured using the 3D EpiDerm skin tissues and HeLa (ATCC CCL-2) cells using a fluorescent reporter of cell viability, alamarBlue (ThermoFisher Scientific). 3D EpiDerm skin tissues (MatTek EPI-200-AFAB) were transferred to a 12-well plate containing 600 μL of AFAB-assay medium supplemented with 10% vol/vol alamarBlue. […] HeLa cells were seeded in a 96-well plate at 2 × 10^4 cells/per well and incubated overnight at 37°C in a humidified 5% CO2 environment to prepare wells at ∼50% confluence for treatments after spent Dulbecco’s modified Eagle’s medium (DMEM) was removed and cells were washed with PBS. Assays were then performed using phenol red-free DMEM supplement with 9% vol/vol alamarBlue and peptide concentrations varying from 3.13 to 200 μg/mL. After a 24 h incubation period, alamarBlue fluorescence emission was measured at 590 nm upon excitation at 560 nm using Varioskan Lux plate reader (Thermo Scientific). Fluorescence intensities of treated cultures were normalized to measurement made for untreated control samples. Experimental data sets were fit to nonlinear dose-response curves to determine IC50 values using Origin 2019.

MRSA ATCC 33592 = assay: MIC determination in broth; type: cell-based, Staphylococcus aureus; details: Table 1 and text; cation-adjusted MH broth, ~10^5 CFU/mL, 37°C, 16 h
How it was run: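 Peptides from the initial screen are tested as 2-fold dilution series against an inoculum of about 10^5 CFU/mL in cation-adjusted Mueller-Hinton medium, incubated at 37°C without agitation.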

SspA protease = SspA protease (Staphylococcus aureus, UniProt P0C1U8); assay: SspA protease treatment with HPLC/MS analysis; type: in vitro ADME; details: peptide 45 μL at 10 mg/mL + SspA 5 μL at 2 mg/mL, 100 mM HEPES pH 7.8, 37°C, 5 h
Experimental: SspA protease was resuspended at 2 mg/mL in 100 mM HEPES (pH 7.8). Peptide samples (45 μL at 10 mg/mL) were mixed with SspA (5 μL at 2 mg/mL) and incubated at 37°C for a total of 5 h. The antimicrobial activities of the reaction mixtures were assayed by spotting 5 μL (∼45 μg) of each on either M. luteus or S. aureus test organisms as described above. Additional samples were flash frozen in liquid nitrogen and stored at −80°C prior to high-pressure liquid chromatography-mass spectrometry (HPLC/MS) analysis.
HPLC/MS analyses were conducted to assess the proteolytic cleavage of STIPs by the SspA protease and catalogue peptides in the reaction mixtures. An Agilent Infinity II 1260 HPLC outfitted with a Phenomenex Lune C5 column (4.6 by 150 mm, 5 μm) was used to separate the peptide fragments using a binary solvent system consisting of solvent A (water, 0.05% formic acid) and solvent B (acetonitrile, 0.05% formic acid) operating at 0.7 mL/min. A 5-μL volume (∼4.5 μg) of each sample was injected at 10% solvent B, followed by a two-step gradient elution from 10% to 50% solvent B in 30 min, then 50% to 100% B in 10 min. The HPLC was coupled to an Advion CMS(L) single quadrupole mass detector through an electrospray ionization source, and ions were detected between 100 and 2,000 m/z. Low temperature and fragmentation settings were used: capillary temperature 135°C, capillary voltage 120 V, source voltage offset 20 V, source gas temperature 135°C, and electrospray ionization (ESI) voltage 3,500 V.

M. luteus ATCC 4698 = assay: MIC determination in broth; type: cell-based, Micrococcus luteus; details: cation-adjusted MH broth, ~10^5 CFU/mL, 30°C, 48 h
S. aureus = assay: MIC of STIP3-1 alanine variants in liquid broth; type: cell-based, Staphylococcus aureus; details: Table S4; maximum concentration tested 200 μg/mL; strain not given
Experimental: The MICs were measured for bioactive peptides identified from the initial screen. […] […] Plates were incubated without shaking at 30 or 37°C depending on the organism.

Sequence of SspA protease (P0C1U8 69-336): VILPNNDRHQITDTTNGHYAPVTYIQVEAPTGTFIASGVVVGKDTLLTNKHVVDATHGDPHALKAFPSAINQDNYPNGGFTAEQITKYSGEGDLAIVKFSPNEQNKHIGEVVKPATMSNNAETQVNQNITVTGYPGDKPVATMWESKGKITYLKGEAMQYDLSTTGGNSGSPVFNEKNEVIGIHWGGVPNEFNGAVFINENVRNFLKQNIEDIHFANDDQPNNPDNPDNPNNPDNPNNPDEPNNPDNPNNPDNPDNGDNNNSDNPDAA

## TVGGLVKWILDTVKKFA [STIP3-1]
HeLa (ATCC CCL-2) cells
  IC50, HeLa cell survival: 200 ± 30 µg/mL
MRSA ATCC 33592
  MIC (μg/mL) for MRSA ATCC 33592: 100 µg/mL
SspA protease
  Susceptibility to SspA cleavage: further proteolysis can occur
M. luteus ATCC 4698
  MIC, M. luteus: 12.5 µg/mL
S. aureus
  MIC, S. aureus (alanine substituted STIP3-1, liquid broth): 100 µg/mL
